Test results taken from publication PMC5564600 (Oncotarget, 2017).

How the values were obtained:
Assay in all cases: biochemical
Assay type in all cases: binding
panel of 442 kinases [1] = target: T1, panel of 442 kinases (Homo sapiens, UniProt O75385); settings: kinase ULK1; for remaining activity at 1 µM: read-out: ULK1 (% of control at 1 µM)
T1 construct: purchased Ambit Biosciences (scanMAXX KINOMEscan)
T1 sequence (O75385 1-1050): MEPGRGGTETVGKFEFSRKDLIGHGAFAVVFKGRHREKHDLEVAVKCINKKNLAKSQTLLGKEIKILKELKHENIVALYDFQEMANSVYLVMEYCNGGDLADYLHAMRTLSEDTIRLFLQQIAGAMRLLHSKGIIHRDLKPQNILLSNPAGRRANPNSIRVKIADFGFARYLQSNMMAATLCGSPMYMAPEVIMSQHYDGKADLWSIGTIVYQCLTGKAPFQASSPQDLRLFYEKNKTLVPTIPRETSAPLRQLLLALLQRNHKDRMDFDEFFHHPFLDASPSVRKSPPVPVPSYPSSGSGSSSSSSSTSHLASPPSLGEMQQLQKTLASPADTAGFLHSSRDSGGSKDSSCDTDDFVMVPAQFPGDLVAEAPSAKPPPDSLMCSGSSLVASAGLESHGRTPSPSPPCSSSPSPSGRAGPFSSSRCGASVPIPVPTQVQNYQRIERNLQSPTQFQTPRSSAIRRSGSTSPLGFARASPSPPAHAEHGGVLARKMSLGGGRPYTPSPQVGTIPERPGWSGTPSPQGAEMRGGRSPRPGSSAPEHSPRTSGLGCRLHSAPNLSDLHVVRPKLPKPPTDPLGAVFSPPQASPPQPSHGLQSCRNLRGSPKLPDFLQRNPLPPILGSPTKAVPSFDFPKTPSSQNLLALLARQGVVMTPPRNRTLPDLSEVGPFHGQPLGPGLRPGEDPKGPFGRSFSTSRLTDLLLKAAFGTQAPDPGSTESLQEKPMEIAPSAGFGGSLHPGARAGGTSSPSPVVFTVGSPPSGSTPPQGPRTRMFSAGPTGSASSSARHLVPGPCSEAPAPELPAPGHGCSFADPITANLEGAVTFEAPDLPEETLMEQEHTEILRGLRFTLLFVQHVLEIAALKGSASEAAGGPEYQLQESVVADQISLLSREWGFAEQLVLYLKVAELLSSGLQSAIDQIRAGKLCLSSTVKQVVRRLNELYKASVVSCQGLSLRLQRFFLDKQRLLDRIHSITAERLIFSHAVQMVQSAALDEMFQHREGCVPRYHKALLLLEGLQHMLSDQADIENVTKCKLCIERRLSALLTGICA

panel of 442 kinases [2] = target: T2, panel of 442 kinases (Homo sapiens, UniProt Q9UL54); settings: kinase TAOK2; for remaining activity at 1 µM: read-out: TAOK2 (% of control at 1 µM)
T2 construct: purchased Ambit Biosciences (scanMAXX KINOMEscan)
T2 sequence (Q9UL54 1-1235): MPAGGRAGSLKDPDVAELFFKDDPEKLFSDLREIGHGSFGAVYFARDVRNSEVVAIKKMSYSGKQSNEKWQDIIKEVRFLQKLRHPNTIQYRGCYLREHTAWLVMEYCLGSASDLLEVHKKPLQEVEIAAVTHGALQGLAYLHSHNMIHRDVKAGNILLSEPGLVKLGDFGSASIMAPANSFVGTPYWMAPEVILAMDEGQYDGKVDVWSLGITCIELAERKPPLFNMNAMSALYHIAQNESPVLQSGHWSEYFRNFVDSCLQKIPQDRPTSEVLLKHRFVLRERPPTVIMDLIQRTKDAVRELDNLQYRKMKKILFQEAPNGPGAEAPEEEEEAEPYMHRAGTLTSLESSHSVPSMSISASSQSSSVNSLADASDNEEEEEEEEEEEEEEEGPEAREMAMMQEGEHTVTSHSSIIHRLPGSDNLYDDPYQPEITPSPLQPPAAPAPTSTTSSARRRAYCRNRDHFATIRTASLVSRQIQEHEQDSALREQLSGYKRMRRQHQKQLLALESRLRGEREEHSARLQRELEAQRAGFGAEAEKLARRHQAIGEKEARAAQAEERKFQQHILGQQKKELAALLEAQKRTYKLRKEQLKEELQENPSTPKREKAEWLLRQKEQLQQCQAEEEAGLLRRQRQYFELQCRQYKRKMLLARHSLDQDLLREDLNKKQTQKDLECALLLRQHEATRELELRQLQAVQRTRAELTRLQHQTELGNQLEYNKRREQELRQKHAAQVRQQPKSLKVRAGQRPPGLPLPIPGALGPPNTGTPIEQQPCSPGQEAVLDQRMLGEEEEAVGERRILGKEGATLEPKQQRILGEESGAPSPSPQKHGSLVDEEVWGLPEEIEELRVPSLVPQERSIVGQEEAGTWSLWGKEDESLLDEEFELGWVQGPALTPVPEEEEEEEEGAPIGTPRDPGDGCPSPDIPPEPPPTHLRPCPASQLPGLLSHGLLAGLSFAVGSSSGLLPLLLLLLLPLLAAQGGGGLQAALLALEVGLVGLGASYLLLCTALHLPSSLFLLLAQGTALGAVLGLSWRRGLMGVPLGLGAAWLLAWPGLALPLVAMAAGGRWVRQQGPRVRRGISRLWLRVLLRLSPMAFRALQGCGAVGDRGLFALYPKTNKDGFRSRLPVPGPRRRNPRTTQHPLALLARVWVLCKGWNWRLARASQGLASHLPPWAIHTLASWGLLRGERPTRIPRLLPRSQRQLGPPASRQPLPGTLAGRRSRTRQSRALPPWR

panel of 442 kinases [3] = target: T3, panel of 442 kinases (Homo sapiens, UniProt P51955); settings: kinase NEK2; for remaining activity at 1 µM: read-out: % of control at 1 µM
T3 construct: purchased Ambit Biosciences (scanMAXX KINOMEscan)
T3 sequence (P51955 1-445): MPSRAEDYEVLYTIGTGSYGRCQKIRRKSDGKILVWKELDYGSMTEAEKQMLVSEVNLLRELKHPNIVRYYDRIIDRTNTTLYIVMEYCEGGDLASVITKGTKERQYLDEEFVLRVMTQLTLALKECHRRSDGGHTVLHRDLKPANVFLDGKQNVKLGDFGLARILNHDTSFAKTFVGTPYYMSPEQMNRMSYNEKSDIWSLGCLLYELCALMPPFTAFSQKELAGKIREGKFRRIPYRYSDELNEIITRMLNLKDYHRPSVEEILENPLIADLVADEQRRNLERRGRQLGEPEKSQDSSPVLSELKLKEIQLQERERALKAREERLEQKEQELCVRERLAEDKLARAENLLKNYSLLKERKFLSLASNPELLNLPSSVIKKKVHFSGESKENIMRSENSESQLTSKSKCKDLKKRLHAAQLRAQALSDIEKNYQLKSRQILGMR

Compound | remaining activity at 1 µM (panel of 442 kinases [1]) [%] | remaining activity at 10 µM (panel of 442 kinases [1]; 10 µM, read-out: ULK1 (% of control at 10 µM)) [%] | remaining activity at 1 µM (panel of 442 kinases [2]) [%] | remaining activity at 10 µM (panel of 442 kinases [2]; 10 µM, read-out: TAOK2 (% of control at 10 µM)) [%] | remaining activity at 1 µM (panel of 442 kinases [3]) [%] | remaining activity at 10 µM (panel of 442 kinases [3]; 10 µM, read-out: % of control at 10 µM) [%]
Nc1cc(C(F)(F)F)c(-c2cc(N3CCOCC3)nc(N3CCOCC3)n2)cn1 [Buparlisib] | 100 | 100 | 87 | 84 | 84 | 86
COc1ncc(-c2ccc3nccc(-c4ccnnc4)c3c2)cc1NS(=O)(=O)c1ccc(F)cc1F [Omipalisib] | 99 | – | 100 | – | 100 | –
FC(F)c1nc2ccccc2n1-c1nc(N2CCOCC2)nc(N2CCOCC2)n1 [ZSTK474, 2-(difluoromethyl)-1-[4,6-di(4-morpholinyl)-1,3,5-triazin-2-yl]-1H-benzimidazole] | 69 | – | 81 | – | 87 | –
Cn1c(=O)n(-c2ccc(C(C)(C)C#N)cc2)c2c3cc(-c4cnc5ccccc5c4)ccc3ncc21 [Dactolisib, 2-methyl-2-[4-(3-methyl-2-oxo-8-quinolin-3-yl-2,3-dihydroimidazo[4,5-c]quinolin-1-yl)-phenyl] propionitrile] | 88 | – | 98 | – | 88 | –
